According to the supplement of paper PMC4858399:
Counter-ions that a name gives are not always drawn.

Legend:
Conditions in all cases: exposure time 48 h
[1] = test system: Caenorhabditis elegans N2; assay: AC50 for larval growth inhibition (Hill fit); higher = less potent
Summary of the method: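 Synchronised C. elegans N2 L1 larvae, 50 per well in 96-well plates, were grown at 20°C for 48 h in K-medium with killed OP50, 1% DMSO and 0.5–200 µM chemical. Worm size was read on a COPAS Biosort as extinction, log-transformed and averaged per well, and only wells holding at least 10 worms were kept. AC50 was obtained by a constrained Hill fit using weighted genetic-algorithm regression, with out-of-range values censored.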

[2] = test system: Caenorhabditis elegans N2; assay: lowest effective concentration for larval growth inhibition (size below effect threshold); higher = less potent
Summary of the method: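 Worm size was taken as per-worm extinction on the Biosort, log-transformed and turned into well means. The larvae (C. elegans N2, L1 stage, 50 per 96-well) had spent 48 h at 20°C in K-medium with killed bacteria, 1% DMSO and 0.5, 1, 5, 10, 50, 100 or 200 µM chemical. The lowest effective concentration marks the first dose where the plate-adjusted mean size drops under a cutoff and remains under it at every higher dose; the cutoff is 5.665.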

[3] = test system: Caenorhabditis elegans N2; assay: mean nematode size ln(EXT) after 48 h, plate-adjusted (DMSO control set to 6) (ln(EXT), control-adjusted); higher = larger nematodes / less growth inhibition
Summary of the method: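 A growth model removed debris from Biosort extinction readings taken on each worm. These worms were synchronised C. elegans N2 L1 larvae, 50 per well in 4–6 wells per treatment, grown for 48 h at 20°C in K-medium with killed OP50, 1% DMSO and 0.5–200 µM chemical. Readings were natural-logged and averaged by well to give mean size. On each plate, the vehicle control mean was subtracted and 6 was added.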

SMILES: CC(C)c1cccc(C(C)C)c1N1C(=O)c2ccc(O)cc2C1=O [5HPP-33]
- AC50 for larval growth inhibition [1]: 58.6 µM
- lowest effective concentration [2]: 50 µM
- mean nematode size ln(EXT) (ln) ([3]; 0.5 µM): 5.78
- mean nematode size ln(EXT) (ln) ([3]; 1 µM): 5.75
- mean nematode size ln(EXT) (ln) ([3]; 5 µM): 5.75
- mean nematode size ln(EXT) (ln) ([3]; 10 µM): 5.76
- mean nematode size ln(EXT) (ln) ([3]; 50 µM): 5.62
- mean nematode size ln(EXT) (ln) ([3]; 100 µM): 4.88
- mean nematode size ln(EXT) (ln) ([3]; 200 µM): 4.78

SMILES: ClC(Cl)=C(c1ccc(Cl)cc1)c1ccc(Cl)cc1 [p,p'-DDE]
- AC50 for larval growth inhibition [1]: 2.64 µM
- lowest effective concentration [2]: 5 µM
- mean nematode size ln(EXT) (ln) ([3]; 0.5 µM): 5.79
- mean nematode size ln(EXT) (ln) ([3]; 1 µM): 5.71
- mean nematode size ln(EXT) (ln) ([3]; 5 µM): 4.36
- mean nematode size ln(EXT) (ln) ([3]; 10 µM): 4.21
- mean nematode size ln(EXT) (ln) ([3]; 50 µM): 3.94
- mean nematode size ln(EXT) (ln) ([3]; 100 µM): 3.93
- mean nematode size ln(EXT) (ln) ([3]; 200 µM): 3.67

SMILES: CCOP(=S)(OCC)SCSP(=S)(OCC)OCC [Ethion]
- AC50 for larval growth inhibition [1]: 99.2 µM
- lowest effective concentration [2]: 1 µM
- mean nematode size ln(EXT) (ln) ([3]; 0.5 µM): 5.78
- mean nematode size ln(EXT) (ln) ([3]; 1 µM): 5.62
- mean nematode size ln(EXT) (ln) ([3]; 5 µM): 5.28
- mean nematode size ln(EXT) (ln) ([3]; 10 µM): 5.04
- mean nematode size ln(EXT) (ln) ([3]; 50 µM): 4.93
- mean nematode size ln(EXT) (ln) ([3]; 100 µM): 4.85
- mean nematode size ln(EXT) (ln) ([3]; 200 µM): 4.06

SMILES: COCC(C)OCC(C)O (centres undefined) [Propanol, 1 (or 2)-(2-methoxymethylethyoxy)-]
- AC50 for larval growth inhibition [1]: > 200 µM
- lowest effective concentration [2]: 200 µM
- mean nematode size ln(EXT) (ln) ([3]; 0.5 µM): 5.9
- mean nematode size ln(EXT) (ln) ([3]; 1 µM): 5.9
- mean nematode size ln(EXT) (ln) ([3]; 5 µM): 5.88
- mean nematode size ln(EXT) (ln) ([3]; 10 µM): 5.85
- mean nematode size ln(EXT) (ln) ([3]; 50 µM): 5.92
- mean nematode size ln(EXT) (ln) ([3]; 100 µM): 5.82
- mean nematode size ln(EXT) (ln) ([3]; 200 µM): 5.66

SMILES: CCCCOC(=O)c1ccccc1C(=O)OCCCC [Dibutyl phthalate]
- AC50 for larval growth inhibition [1]: 20.9 µM
- lowest effective concentration [2]: 50 µM
- mean nematode size ln(EXT) (ln) ([3]; 0.5 µM): 6.09
- mean nematode size ln(EXT) (ln) ([3]; 1 µM): 6.09
- mean nematode size ln(EXT) (ln) ([3]; 5 µM): 5.61
- mean nematode size ln(EXT) (ln) ([3]; 10 µM): 5.99
- mean nematode size ln(EXT) (ln) ([3]; 50 µM): 4.67
- mean nematode size ln(EXT) (ln) ([3]; 100 µM): 5.62
- mean nematode size ln(EXT) (ln) ([3]; 200 µM): 5.42

SMILES: Cc1oc(-c2ccccc2)nc1CCOc1ccc(C[C@H](Nc2ccccc2C(=O)c2ccccc2)C(=O)O)cc1 [Farglitazar]
- AC50 for larval growth inhibition [1]: 39 µM
- lowest effective concentration [2]: 50 µM
- mean nematode size ln(EXT) (ln) ([3]; 0.5 µM): 5.87
- mean nematode size ln(EXT) (ln) ([3]; 1 µM): 5.89
- mean nematode size ln(EXT) (ln) ([3]; 5 µM): 5.92
- mean nematode size ln(EXT) (ln) ([3]; 10 µM): 6.19
- mean nematode size ln(EXT) (ln) ([3]; 50 µM): 4.95
- mean nematode size ln(EXT) (ln) ([3]; 100 µM): 4.73
- mean nematode size ln(EXT) (ln) ([3]; 200 µM): 4.48

SMILES: CC(C)(C)c1cc(/C=C2\SC(=N)NC2=O)cc(C(C)(C)C)c1O [Darbufelone mesylate]
- AC50 for larval growth inhibition [1]: 31.2 µM
- lowest effective concentration [2]: ≤ 0.5 µM
- mean nematode size ln(EXT) (ln) ([3]; 0.5 µM): 5.59
- mean nematode size ln(EXT) (ln) ([3]; 1 µM): 5.62
- mean nematode size ln(EXT) (ln) ([3]; 5 µM): 5.03
- mean nematode size ln(EXT) (ln) ([3]; 10 µM): 5.48
- mean nematode size ln(EXT) (ln) ([3]; 50 µM): 4.17
- mean nematode size ln(EXT) (ln) ([3]; 100 µM): 4.18
- mean nematode size ln(EXT) (ln) ([3]; 200 µM): 3.87

SMILES: CC(C)c1nnc2ccc(-c3ocnc3-c3cc(F)ccc3F)cn12
- AC50 for larval growth inhibition [1]: > 200 µM
- lowest effective concentration [2]: 200 µM
- mean nematode size ln(EXT) (ln) ([3]; 0.5 µM): 5.79
- mean nematode size ln(EXT) (ln) ([3]; 1 µM): 5.88
- mean nematode size ln(EXT) (ln) ([3]; 5 µM): 5.84
- mean nematode size ln(EXT) (ln) ([3]; 10 µM): 5.82
- mean nematode size ln(EXT) (ln) ([3]; 50 µM): 5.82
- mean nematode size ln(EXT) (ln) ([3]; 100 µM): 5.79
- mean nematode size ln(EXT) (ln) ([3]; 200 µM): 5.53

SMILES: COC(=O)NC(=S)Nc1ccccc1NC(=S)NC(=O)OC [Thiophanate-methyl]
- AC50 for larval growth inhibition [1]: > 200 µM
- lowest effective concentration [2]: 200 µM
- mean nematode size ln(EXT) (ln) ([3]; 0.5 µM): 5.88
- mean nematode size ln(EXT) (ln) ([3]; 1 µM): 5.84
- mean nematode size ln(EXT) (ln) ([3]; 5 µM): 5.76
- mean nematode size ln(EXT) (ln) ([3]; 10 µM): 5.87
- mean nematode size ln(EXT) (ln) ([3]; 50 µM): 5.83
- mean nematode size ln(EXT) (ln) ([3]; 100 µM): 5.73
- mean nematode size ln(EXT) (ln) ([3]; 200 µM): 5.41

SMILES: O=C(O)C(F)(F)C(F)(F)C(F)(F)C(F)(F)C(F)(F)C(F)(F)C(F)(F)C(F)(F)C(F)(F)C(F)(F)F [Perfluoroundecanoic acid]
- AC50 for larval growth inhibition [1]: 4.14 µM
- lowest effective concentration [2]: 5 µM
- mean nematode size ln(EXT) (ln) ([3]; 0.5 µM): 5.8
- mean nematode size ln(EXT) (ln) ([3]; 1 µM): 5.77
- mean nematode size ln(EXT) (ln) ([3]; 5 µM): 4.55
- mean nematode size ln(EXT) (ln) ([3]; 10 µM): 3.95
- mean nematode size ln(EXT) (ln) ([3]; 50 µM): 3.63
- mean nematode size ln(EXT) (ln) ([3]; 100 µM): 3.64
- mean nematode size ln(EXT) (ln) ([3]; 200 µM): 3.2

SMILES: CN(C)C(=O)Nc1ccc(Cl)cc1 [Monuron]
- AC50 for larval growth inhibition [1]: > 200 µM
- lowest effective concentration [2]: 200 µM
- mean nematode size ln(EXT) (ln) ([3]; 0.5 µM): 5.99
- mean nematode size ln(EXT) (ln) ([3]; 1 µM): 6
- mean nematode size ln(EXT) (ln) ([3]; 5 µM): 5.94
- mean nematode size ln(EXT) (ln) ([3]; 10 µM): 5.98
- mean nematode size ln(EXT) (ln) ([3]; 50 µM): 5.86
- mean nematode size ln(EXT) (ln) ([3]; 100 µM): 5.79
- mean nematode size ln(EXT) (ln) ([3]; 200 µM): 5.34
